Results taken from paper PMC11249646, “Small-Molecule Disruptors of the Interaction between Calcium- and Integrin-Binding Protein 1 and Integrin αIIbβ3 as Novel Antiplatelet Agents” (ACS Pharmacology & Translational Science, 2024).
Where two headings read alike, the source gives them in different places.

Molecular target: T1, CIB1 and αIIb interaction (CIB1-GST : F-αIIb peptide) (Homo sapiens, UniProt Q99828)
T1 construct: made in house; host or cells: BL-21 plus RIL cells (E. coli)
T1 sequence (Q99828 1-191): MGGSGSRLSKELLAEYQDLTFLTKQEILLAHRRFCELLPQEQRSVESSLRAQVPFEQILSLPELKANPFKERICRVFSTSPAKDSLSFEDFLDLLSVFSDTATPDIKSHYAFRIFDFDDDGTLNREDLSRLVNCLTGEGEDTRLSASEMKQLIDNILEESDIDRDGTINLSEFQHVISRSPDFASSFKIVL
Assay: FP assay, 1536-well qHTS format (primary and confirmatory screen)
Type: binding
Conditions: for Efficacy (%): negative = inhibition; for Curve Class: negative sign = inhibitory curve; for IC50: read-out: IC50

[1] = qHTS primary screen of LOPAC/NPACT libraries
[2] = qHTS primary screen hits, Table S2
[3] = qHTS primary screen hits, Table S2, NPACT library

| Efficacy (%) [1] [%] | Curve Class [1] | IC50 [1] [µM] | Efficacy (%) [2] [%] | Curve Class (qHTS primary screen hits, Table S2, several classes where COUNT > 1) | IC50 [2] [µM] | Curve Class [3] | Curve Class [2] | SMILES |
| --- | --- | --- | --- | --- | --- | --- | --- | --- |
| -17 | -1.4 | 10 | – | – | – | – | – | Cn1cc(-c2cnc3ccc4ccc(CS(=O)(=O)NCc5ccccn5)cc4c(=O)c3c2)cn1 [NCGC00378567-02] |
| – | – | – | -29 | -2.4 | 49.1 | – | – | CCOc1cc(C(C)(C)C)ccc1C1=N[C@@](C)(c2ccc(Cl)cc2)[C@@](C)(c2ccc(Cl)cc2)N1C(=O)N1CCN(CC(=O)N2CCOCC2)CC1 [NCGC00378588-02] |
| -24 | -1.4 | 6.3 | – | – | – | – | – | CNC(=O)c1ccccc1Nc1cc(Nc2ccc(N3CCOCC3)cc2OC)ncc1C(F)(F)F [NCGC00378620-04] |
| -25 | -2.4 | 56.2 | – | – | – | – | – | Cc1cc(-c2cc(O)ccc2Cl)cc2nnc(Nc3ccc(OCCN4CCCC4)cc3)nc12.Cl [NCGC00378690-01] |
| -28 | -2.4 | 56.2 | – | – | – | – | – | Cc1cccc(C)c1-n1c(=O)c2cnc(Nc3ccc(N4CCN(C)CC4)cc3)nc2n2c3ccccc3nc12 [NCGC00378811-02] |
| -25 | -2.4 | 56.2 | – | – | – | – | – | CCOc1cc(C(=O)N2CCC(N3CCN(C)CC3)CC2)ccc1Nc1ncc2c(n1)N(C1CCCC1)c1ccccc1C(=O)N2C [NCGC00378965-03] |
| -32 | -2.4 | 79.4 | – | – | – | – | – | CCCC1(CCC)CCC2(CCN(CCCN(CC)CC)C2)CC1.Cl [NCGC00379163-01] |
| -28 | -2.4 | 56.2 | – | – | – | – | – | Cc1cc(O)cc(Oc2cc(C)c(C(=O)O)c(O)c2)c1 [NCGC00380115-01] |
| -24 | -2.4 | 39.8 | – | – | – | – | – | C=C1CCC2C(C)(C)CC(O)CC2(C)C1CCC(C)CCOC(=O)CCC(=O)O (stereo not drawn) [NCGC00380160-01] |
| -23 | -1.4 | 4.5 | – | – | – | – | – | C=C1C(=O)O[C@@H]2C/C(C)=C\C(=O)/C=C(\C)[C@@H](OC(=O)/C(C)=C\C)[C@H](O)[C@@H]12 [NCGC00380290-01] |
| -28 | -2.4 | 44.7 | – | – | – | – | – | CC1(CO)CCCC2(C)C1C(OC(=O)c1ccccc1)C=C1C(=O)OCC12O (stereo not drawn) [NCGC00380390-01] |
| – | – | – | -17 | – | 28.2 | -1.4 | – | C=C(C)C(=O)OC1CC2(C)OC(=CC2=O)C(=C)CC2OC(=O)C(COC)C12 (stereo not drawn) [NCGC00380534-01] |
| – | – | – | -57 | – | 31.6 | -2.2 | – | CC1OC2OC(=O)C3(C)CC4C5(CO5)C5=CC(=O)OC(C)(C)C5=CC(=O)C4(C)C(C1=O)C23 (stereo not drawn) [NCGC00380663-01] |
| -20 | -1.4 | 8.9 | – | – | – | – | – | O=C(/C=C/c1ccccc1)OC[C@H]1O[C@@H](OC(=O)c2cc(O)c(O)c(O)c2)[C@H](O)[C@@H](O)[C@@H]1O [NCGC00380690-01] |
| -23 | -2.4 | 50.1 | – | – | – | – | – | Cc1c(O)cc2c(c1O)COC1(O)CCCOC21 (stereo not drawn) [NCGC00380856-01] |
| -21 | -1.4 | 14.1 | – | – | – | – | – | C=C1CC(=O)C2OC2(C)CC2OC(=O)C(=C)C2C(O)C1OC(=O)/C(C)=C\C (stereo not drawn) [NCGC00381057-01] |
| -22 | -1.4 | 8.9 | – | – | – | – | – | C=C(C)C(=O)OC1CC2(C)OC(=CC2=O)C(=C)CC2OC(=O)C(=C)C12 (stereo not drawn) [NCGC00381113-01] |
| -28 | -1.4 | 1.6 | – | – | – | – | – | C=C1C(=O)O[C@@H]2C(OC(=O)/C(C)=C\C)/C(C)=C\C(=O)/C=C(\C)C[C@H](O)[C@@H]12 (stereo partly drawn) [NCGC00381208-01] |
| -22 | -2.4 | 56.2 | – | – | – | – | – | CCC(C)CC(=O)OC1C(=O)C(CO)=CC(O)C1C(C)C (stereo not drawn) [NCGC00381331-01] |
| -22 | -2.4 | 25.1 | – | – | – | – | – | COC(=O)CC1OC(C)C2=C(O)c3c(O)cccc3C(=O)C23OC13 (stereo not drawn) [NCGC00381362-01] |
| -25 | -1.4 | 11.2 | – | – | – | – | – | C=C1CC2OC(=O)C(=C)C2C(OC(=O)/C(C)=C\C)CC2(C)OC1=CC2=O (stereo not drawn) [NCGC00384607-01] |
| -20 | -1.4 | 17.8 | – | – | – | – | – | C=C1CCC2C(C)(COC(C)=O)CCCC2(C)C1CCC(C)CC(=O)O (stereo not drawn) [NCGC00384884-01] |

| Efficacy (%) [1] [%] | Curve Class [1] | IC50 [1] [µM] | Efficacy (%) [2] [%] | Curve Class (qHTS primary screen hits, Table S2, several classes where COUNT > 1) | IC50 [2] [µM] | Curve Class [3] | Curve Class [2] | SMILES |
| --- | --- | --- | --- | --- | --- | --- | --- | --- |
| – | – | – | -66 | – | 22.4 | – | -2.2 | COc1ccc(C(=O)O[C@H]2C=COC=C3C=C4C(=O)N(C)C(=S)C(=O)N4[C@@H]32)cc1Oc1cc(C=O)ccc1O [NCGC00384899-01] |
| -23 | -2.4 | 31.6 | – | – | – | – | – | CC1CC2(O)OC(=O)C3=C2C(CCC3)[C@@]12C[C@@H](c1ccoc1)OC2=O (stereo partly drawn) [NCGC00385045-01] |
| -18 | -2.4 | 31.6 | – | – | – | – | – | COc1cc(/C=C/c2ccccc2)c(C(=O)O)c(O)c1CC=C(C)C [NCGC00385333-01] |
| -145 | -2.1 | 28.2 | – | – | – | – | – | CC(NC(=O)CC(=O)O)c1nc2ccccc2c(=O)[nH]1 (stereo not drawn) [NCGC00385407-01] |
| -28 | -2.4 | 56.2 | – | – | – | – | – | COc1c(C)c(OCC(O)C(C)(C)O)cc2c1CNC2=O (stereo not drawn) [NCGC00385487-01] |
| -31 | -2.4 | 39.8 | – | – | – | – | – | O=C(O)c1cc(O)c2cccc(O)c2c1O[C@@H]1O[C@H](CO)[C@@H](O)[C@H](O)[C@H]1O [NCGC00385595-01] |
| -30 | -2.4 | 50.1 | – | – | – | – | – | C=C1C(=O)O[C@@H]2C3=C(C)CCC[C@]3(C)CC[C@@]12O [NCGC00385722-01] |
| -28 | -2.4 | 56.2 | – | – | – | – | – | O=C(O)CC1(O)C(=O)Nc2ccccc21 (stereo not drawn) [NCGC00385842-01] |
| -21 | -1.4 | 11.2 | – | – | – | – | – | C=C1C(=O)OC2/C=C(\C)CC/C=C(\C)CC(OC(C)=O)C12 (stereo not drawn) [NCGC00385946-01] |
| -28 | -2.4 | 63.1 | – | – | – | – | – | C/C=C/C=C/c1cc2c(C=O)c(O)c(CC=C(C)C)cc2o1 [NCGC00386103-01] |
| -24 | -1.4 | 17.8 | – | – | – | – | – | O=C(NCc1ccc(Oc2ccccc2)cc1)c1nc(-c2cc(Br)c(O)c(Br)c2)no1 [NCGC00386303-01] |
| -22 | -1.4 | 10 | – | – | – | – | – | C=CC(=O)Nc1cccc(Nc2nc(Nc3ccc(OCCOC)cc3)ncc2F)c1 [NCGC00386306-06] |
| -28 | -2.4 | 56.2 | – | – | – | – | – | Cc1ccccc1NC(=O)Nc1ccc(CN2C(=O)N([C@@H](CC(C)C)C(=O)N[C@@H](CC(=O)O)c3ccccc3)C(=O)C2(C)C)cc1 [NCGC00386592-01] |
| -31 | -2.4 | 79.4 | – | – | – | – | – | Cc1cc2occ(CN(C)CCN(C)Cc3cn(-c4cccc(C(F)(F)F)c4)c4ccccc34)c(=O)c2cc1C.Cl [NCGC00386701-02] |
| -33 | -2.4 | 79.4 | – | – | – | – | – | CC/C(=C(\c1ccc(O)cc1)c1ccc(OCCNC)cc1)c1ccccc1 [NCGC00386714-01] |
| -21 | -1.4 | 14.1 | – | – | – | – | – | CCOc1ccc(-c2cc(NC(=O)c3c(F)cccc3F)c(C(=O)O)s2)cc1 [NCGC00386875-01] |
| – | – | – | -30 | – | 56.2 | -2.4 | – | CCc1c(-c2ccccc2)c(-c2ccccc2)nn1-c1ccccc1-c1cccc(OCC(=O)O)c1 [NCGC00387254-02] |
| -26 | -1.4 | 5.6 | – | – | – | – | – | N#C/C(=C1\Nc2ccccc2S1)c1ccnc(NCCc2cccnc2)n1 [NCGC00387772-02] |
| -31 | -1.4 | 7.1 | – | – | – | – | – | N=C(N)c1ccc2c(c1)N/C(=C1/C=C(CC(=O)NC(CC(=O)O)C(=O)O)C=C(c3cc(S(N)(=O)=O)ccc3O)C1=O)N2 (stereo not drawn) [NCGC00387860-01] |
| -31 | -2.4 | 44.7 | – | – | – | – | – | O=C(Nc1ncc([N+](=O)[O-])s1)c1ccccc1O [NCGC00388427-01] |
| -26 | -2.4 | 56.2 | – | – | – | – | – | COc1ccnc(C[S+]([O-])c2nc3cc(OC(F)F)ccc3[nH]2)c1OC (stereo not drawn) [NCGC00388526-02] |

| SMILES | Efficacy (%) [1] [%] | Curve Class [1] | IC50 [1] [µM] | Efficacy (%) [2] [%] | Curve Class (qHTS primary screen hits, Table S2, several classes where COUNT > 1) | IC50 [2] [µM] | Curve Class [3] | Curve Class [2] |
| --- | --- | --- | --- | --- | --- | --- | --- | --- |
| CO[C@@H](Cc1ccc(OCCc2nc(-c3ccccc3)oc2C)c2ccsc12)C(=O)O [NCGC00378922-01] | -15 | -1.4 | 20 | – | – | – | – | – |
| C=C1C2(C)CC3C(C)(O)C4=CC(=O)OC(C)(C)C4=CCC3(C)C13C(=O)OC(C)C3(O)C2=O (stereo not drawn) [NCGC00380442-01] | -28 | -2.4 | 35.5 | – | – | – | – | – |
| CCC(C)(OC(C)=O)C(=O)O[C@H]1[C@H](OC(C)=O)C[C@@H]2[C@@](C)([C@@H]3C[C@H]4C=CO[C@H]4O3)[C@H](C)C[C@H](OC(C)=O)[C@@]2(COC(C)=O)[C@@]12CO2 (stereo partly drawn) [NCGC00380906-01] | -20 | -2.4 | 10 | – | – | – | – | – |
| O=C1Nc2ccc3ncsc3c2/C1=C/c1c[nH]cn1 [NCGC00387501-01] | – | – | – | -27 | – | 7.1 | -1.4 | – |
